Measured values reported in US5270339A, “Phenoxybenzene derivative” (Kanagafuchi Kagaku Kogyo Kabushiki Kaisha, priority 1991, dated 1993).
Counter-ions that a name gives are not always drawn.

Tests used:
[1] = system: experimental amnesia in mice induced by cycloheximide; assay: Anti-amnesic effect: passive avoidance task (step-through), cycloheximide-induced amnesia; type: in vivo, ddY male mice; conditions: for Step-through latency: mean of group; for responders at 1 mg/kg / responders at 3 mg/kg: Mus musculus, mice with latency > 100 seconds, read-out: Ratio of memory
Protocol: As experimental animals, Wistar male rats and ddY male mice were used for the tests after they were housed for a week under every 12 hours' dark-light cycle at room temperature of 24° to 26° C.
The effect on experimental amnesia in mice induced by cycloheximide was evaluated.
The experiment was carried out using an experimental apparatus of passive avoidance task for mice (made by Ohara-ika-sangyo K. K.) comprising a box divided into the two compartments of dark and light. That is, the dark compartment [a box having a reverse trapezoid cross section (height: 8 cm, base line: 5 cm, oblique line: 9.5 cm) and having the length of 14 cm] was shield from a light with a black plastic case and was floored with stainless grids for giving an electrical shock so that an electricity might be turned on a determined time after interception of a photobeam placed in the dark compartment. The light compartment made of transparent plastic (a box of the same shape as that of the dark compartment having the length of 16 cm, lightened from a location spaced 25 cm above by a 60 W electric lamp) was provided adjacent to the dark compartment. Between the two compartments, there was provided a circular entrance having the diameter of 3 cm with a guillotine door which could be opened and closed. By using the above-mentioned dark-light box, the experiment was carried out according to the following procedure.
A mouse (5 week-old) previously conditioned in the dark-light box was put in the light compartment and the guillotine door was opened. Three seconds after the mouse moved into the dark compartment and interrupted the photobeam, 0.3 mA electrical shock was given to limbs for 3 seconds from the floor grid (aquisition trial). Just after the mouse rushed into the light compartment, the door was shut and the […] in the light compartment was picked out to return to his home cage. After 24 hours, the mouse was placed again in the light compartment and the period from the opening of the guillotine door to the time the mouse completely entered the dark compartment was recorded maximally 300 seconds as a step-through latency (retention trial).
The amnesia was induced by subcutaneous injection of cycloheximide (120 mg/kg) dissolved in saline 10 minutes before the aquisition trial. As a control, the same amount of saline alone was administered. […]
A ratio of number of mice showing the step-through latency of more than 100 seconds in the group was defined as a ratio of memory for convenience's sake.
The step-through latency in Table 2 was the mean value for each treated group.

[2] = Acute toxicity test, oral; type: in vivo, ddY male mice; conditions: mouse, in vivo, ddY mice, 2 weeks observation
Protocol: With respect to the compounds 1 to 86 shown in Table 1 as test compounds, the acute toxicity was examined using ddY mice according to the following method.
In each group, six male ddY mice weighing 27 to 30 g were employed. The compounds 1 to 86 suspended in an aqueous solution of 0.5% sodium carboxymethylcellulose were administered orally in a volume of 0.1 ml/10 g body weight. […] The LD50 (mg/kg) values were estimated from the ratio of the number of dead mice to the number of mice used.

SMILES | Step-through latency ([1]; 1 mg/kg oral) | responders at 1 mg/kg ([1]; 1 mg/kg oral) | LD50 at 336 h [2] | Step-through latency ([1]; 3 mg/kg oral) | responders at 3 mg/kg ([1]; 3 mg/kg oral)
CCC1C(=Cc2cccc(Oc3ccccc3)c2)CCN1CC (stereo not drawn) [Compound 78] | 132 s | 75% | ≥ 500 mg/kg | – | –
CC(=O)N1CCC(=Cc2cccc(Oc3ccccc3)c2)C1 [Compound 74] | 107 s | 50% | ≥ 500 mg/kg | – | –
CN(C)CCN1CCC(=Cc2cccc(Oc3ccccc3)c2)C1=O [Compound 40] | 116 s | 50% | ≥ 500 mg/kg | – | –
NC(=O)N1CCC(=Cc2cccc(Oc3ccccc3)c2)C1 [Compound 73] | 119 s | 50% | ≥ 500 mg/kg | – | –
O=C1NCC(c2ccccc2)C1=Cc1cccc(Oc2ccccc2)c1 (stereo not drawn) [Compound 62] | – | – | ≥ 500 mg/kg | 170 s | 50%
CCN1CCC(=Cc2ccc(Oc3ccccc3)cc2)C1 [Compound 18] | – | – | ≥ 500 mg/kg | – | –
CCCCCCN1CCC(=Cc2cccc(Oc3ccccc3)c2)C1=O [Compound 13] | – | – | ≥ 500 mg/kg | 132 s | 38%
CN(C)N1CCC(=Cc2cccc(Oc3ccccc3)c2)C1=O [Compound 38] | 100 s | 50% | ≥ 500 mg/kg | – | –
O=C1C(=Cc2cccc(Oc3ccccc3)c2)CCN1c1ccccc1 [Compound 46] | – | – | ≥ 500 mg/kg | 172 s | 75%
C(=C1CCN(C2CC2)C1)c1cccc(Oc2ccccc2)c1 [Compound 85] | 97 s | 25% | ≥ 500 mg/kg | – | –
COCCN1CCC(=Cc2cccc(Oc3ccccc3)c2)C1=O [Compound 23] | – | – | ≥ 500 mg/kg | 71 s | 50%
COC1CC(=Cc2cccc(Oc3ccccc3)c2)C(=O)N1 (stereo not drawn) [Compound 55] | – | – | ≥ 500 mg/kg | 80 s | 25%
OCCN1CCC(=Cc2cccc(Oc3ccccc3)c2)C1 [Compound 71] | 212 s | 75% | ≥ 500 mg/kg | – | –
O=C1C(=Cc2cccc(Oc3ccccc3)c2)CCN1C1CC1 [Compound 17] | – | – | ≥ 500 mg/kg | – | –
CC1CNC(=O)C1=Cc1cccc(Oc2ccccc2)c1 (stereo not drawn) [Compound 60] | – | – | ≥ 500 mg/kg | – | –
C=CCN1CCC(=Cc2cccc(Oc3ccccc3)c2)C1 [Compound 69] | 102 s | 50% | ≥ 500 mg/kg | – | –
O=C1C(=Cc2cccc(Oc3ccccc3)c2)CCN1CCCl [Compound 27] | – | – | ≥ 500 mg/kg | – | –
COc1ccc(Oc2cccc(C=C3CCNC3=O)c2)cc1 [Compound 5] | – | – | ≥ 500 mg/kg | 134 s | 50%
COc1ccc(C(=O)N2CCC(=Cc3cccc(Oc4ccccc4)c3)C2=O)cc1 [Compound 43] | – | – | ≥ 500 mg/kg | 179 s | 100%
CCOC(=O)CN1CCC(=Cc2cccc(Oc3ccccc3)c2)C1=O [Compound 28] | – | – | ≥ 500 mg/kg | 100 s | 50%
CC(=O)CN1CCC(=Cc2cccc(Oc3ccccc3)c2)C1=O [Compound 45] | 169 s | 50% | ≥ 500 mg/kg | – | –
CCOC1CC(=Cc2cccc(Oc3ccccc3)c2)C(=O)N1 (stereo not drawn) [Compound 56] | – | – | ≥ 500 mg/kg | 129 s | 63%
CCCCN1CCC(=Cc2cccc(Oc3ccccc3)c2)C1 [Compound 68] | 179 s | 75% | ≥ 500 mg/kg | – | –
O=C1C(=Cc2cccc(Oc3ccccc3)c2)CCN1CCc1ccccc1 [Compound 51] | – | – | ≥ 500 mg/kg | – | –
NCCN1CCC(=Cc2cccc(Oc3ccccc3)c2)C1=O [Compound 39] | – | – | ≥ 500 mg/kg | – | –
O=C1NCCC1=Cc1ccccc1Oc1ccccc1 [Compound 3] | – | – | ≥ 500 mg/kg | 173 s | 75%
O=C1NCCC1=Cc1ccc(Oc2ccccc2)c([N+](=O)[O-])c1 [Compound 7] | – | – | ≥ 500 mg/kg | 113 s | 50%
N#CCN1CCC(=Cc2cccc(Oc3ccccc3)c2)C1=O [Compound 37] | 110 s | 50% | ≥ 500 mg/kg | – | –

SMILES | Step-through latency ([1]; 1 mg/kg oral) | responders at 1 mg/kg ([1]; 1 mg/kg oral) | LD50 at 336 h [2] | Step-through latency ([1]; 3 mg/kg oral) | responders at 3 mg/kg ([1]; 3 mg/kg oral)
CN1CCC(=Cc2cccc(Oc3ccccc3)c2)C1=O [Compound 9] | – | – | ≥ 500 mg/kg | 151 s | 75%
S=C1NCCC1=Cc1cccc(Oc2ccccc2)c1 [Compound 86] | – | – | ≥ 500 mg/kg | 70 s | 25%
O=C1C(=Cc2cccc(Oc3ccccc3)c2)CCN1C(=O)c1ccccc1 [Compound 42] | 80 s | 25% | ≥ 500 mg/kg | – | –
CCN1CCC(=Cc2cccc(Oc3ccc(C)cc3)c2)C1=O [Compound 15] | – | – | ≥ 500 mg/kg | – | –
Cc1ccc(Oc2cccc(C=C3CCNC3=O)c2)cc1 [Compound 4] | – | – | ≥ 500 mg/kg | – | –
C=CN1CCC(=Cc2cccc(Oc3ccccc3)c2)C1=O [Compound 21] | – | – | ≥ 500 mg/kg | – | –
O=C1NCCC1Cc1cccc(Oc2ccccc2)c1 (stereo not drawn) [Compound 81] | 70 s | 25% | ≥ 500 mg/kg | – | –
O=C(O)CN1CCC(=Cc2cccc(Oc3ccccc3)c2)C1=O [Compound 29] | – | – | ≥ 500 mg/kg | – | –
O=C1C(=Cc2cccc(Oc3ccccc3)c2)CCN1Cc1ccccc1 [Compound 48] | – | – | ≥ 500 mg/kg | 117 s | 63%
O=C1C(=Cc2cccc(Oc3ccccc3)c2)CCN1CCOC1CCCCO1 (stereo not drawn) [Compound 24] | – | – | ≥ 500 mg/kg | 109 s | 38%
COc1ccc(NC(=O)N2CCC(=Cc3cccc(Oc4ccccc4)c3)C2=O)cc1 [Compound 31] | – | – | ≥ 500 mg/kg | 100 s | 50%
CCN1CCC(Cc2cccc(Oc3ccccc3)c2)C1=O (stereo not drawn) [Compound 82] | – | – | ≥ 500 mg/kg | 102 s | 38%
CNC(=O)CN1CCC(=Cc2cccc(Oc3ccccc3)c2)C1=O [Compound 34] | – | – | ≥ 500 mg/kg | – | –
NC(=O)N1CCC(=Cc2cccc(Oc3ccccc3)c2)C1=O [Compound 30] | – | – | ≥ 500 mg/kg | – | –
O=C1C(=Cc2cccc(Oc3ccccc3)c2)CCN1CCO [Compound 25] | – | – | ≥ 500 mg/kg | – | –
CCCCC1C(=Cc2cccc(Oc3ccccc3)c2)CCN1CC (stereo not drawn) [Compound 79] | 168 s | 50% | ≥ 500 mg/kg | – | –
O=C1NC(CO)CC1=Cc1cccc(Oc2ccccc2)c1 (stereo not drawn) [Compound 58] | 111 s | 50% | ≥ 500 mg/kg | – | –
CCOC1CC(=Cc2cccc(Oc3ccccc3)c2)C(=O)N1CC (stereo not drawn) [Compound 57] | – | – | ≥ 500 mg/kg | 157 s | 50%
Nc1cc(C=C2CCNC2=O)ccc1Oc1ccccc1 [Compound 8] | – | – | ≥ 500 mg/kg | 118 s | 38%
CCOC(=O)N1CCC(=Cc2cccc(Oc3ccccc3)c2)C1 [Compound 72] | – | – | ≥ 500 mg/kg | – | –
O=C1NCCC1=Cc1ccc(Oc2ccccc2)cc1 [Compound 2] | – | – | ≥ 500 mg/kg | 188 s | 75%
CCN1C(=O)C(=Cc2cccc(Oc3ccccc3)c2)CC1O (stereo not drawn) [Compound 54] | – | – | ≥ 500 mg/kg | – | –
CCC1NCCC1=Cc1cccc(Oc2ccccc2)c1 (stereo not drawn) [Compound 77] | – | – | ≥ 500 mg/kg | – | –
NC(=O)CCN1CCC(=Cc2cccc(Oc3ccccc3)c2)C1=O [Compound 33] | – | – | ≥ 500 mg/kg | – | –
O=C1C(=Cc2cccc(Oc3ccccc3)c2)CCN1c1ccc(F)cc1F [Compound 47] | – | – | ≥ 500 mg/kg | – | –
C(=C1CCN(CCOC2CCCCO2)C1)c1cccc(Oc2ccccc2)c1 (stereo not drawn) [Compound 70] | – | – | ≥ 500 mg/kg | – | –
C1=Cc2cccc(OCC3CNCCO3)c2C1 (stereo not drawn) [Indeloxazine hydrochloride, reference compound] | – | – | – | 131 s | 43%
